Values quoted from earlier work, collected in patent US12728116B2, “Methods of treating multiple sclerosis” (Vanda Pharmaceuticals Inc., priority 2021, dated 2026).

System: adult subjects with relapsing MS
Conditions: comparison values given in brackets; cited from earlier work

Row | Compound | ECG HR effect: time of nadir post-dose (other S1P receptor modulators) [h]
1 | CCCCCCCCc1ccc(CCC(N)(CO)CO)cc1 [fingolimod] | ~6
2 | CCc1cc(/C(C)=N/OCc2ccc(C3CCCCC3)c(C(F)(F)F)c2)ccc1CN1CC(C(=O)O)C1 [siponimod] | 3 to 4
